The structures appear in SMILES notation. A value given as a limit tells only on which side of the number the result lay.

In general, melting point refers to the temperature of the solid-liquid transition. `COc1ccc2c(c1)cc(C(OC)(c1ccccc1)c1cc3cc(OC)ccc3n1S(=O)(=O)c1ccccc1)n2S(=O)(=O)c1ccccc1` [Example 7, Di-(5-Methyloxy-1-phenylsulphonylindol-2-yl)phenyl-methyloxymethane] yielded a melting point of 100 to 101 °C.

Consider `CN(C)Cc1c(C(O)c2cc3ccccc3n2S(=O)(=O)c2ccccc2)n(S(=O)(=O)c2ccccc2)c2ccccc12` (stereo not shown) [Example 8, (3-Dimethylaminomethyl-1-phenylsulphonylindol-2-yl)(1-phenylsulphonylindol-2-yl)methan-1-ol], for which the melting point was in the range of 116 to 117 °C.

The compound `COc1ccc2cc(C(O)c3cc4ccccc4n3S(=O)(=O)c3ccccc3)n(S(=O)(=O)c3ccccc3)c2c1` (stereo not shown) [Example 11, 6-Methoxy-1-phenylsulphonyl-1H-2-indolyl(1-phenylsulphonyl-1H-2-indolyl)methanol] showed a melting point of 180 °C.

For the compound `COc1cccc2cc(C(O)c3cc4ccccc4n3S(=O)(=O)c3ccccc3)n(S(=O)(=O)c3ccccc3)c12` (stereo not shown) [Example 12, 7-Methoxy-1-phenylsulphonyl-1H-2-indolyl(1-phenylsulphonyl-1H-2-indolyl)methanol], the melting point was 148 to 150 °C.

`COc1ccc2c(c1)cc(C(=O)c1cc3ccccc3n1S(=O)(=O)c1ccccc1)n2S(=O)(=O)c1ccccc1` [Example 17, (5-Methoxy-N-phenylsulphonylindol-2-yl)-(N-phenylsulphonylindol-2-yl)methan-1-one] returned a melting point of 205 °C.

Consider `COc1ccc2[nH]c(C(=O)c3cc4cc(OC)ccc4[nH]3)cc2c1` [Example 21, Bis(5-methoxyindol-2-yl)-1-methanone], for which the melting point was 202 to 204 °C.

Regarding `COc1ccc2[nH]c(C(=O)c3cc4ccccc4s3)cc2c1` [Example 28, Benzo[b]thiophen-2-yl(5-methoxy-1H-2-indolyl)-1-methanone], the melting point stood at 200 °C.

`COc1cccc2cc(C(=O)c3cc4ccccc4n3S(=O)(=O)c3ccccc3)n(S(=O)(=O)c3ccccc3)c12` [Example 29, 7-Methoxy-1-phenylsulphonyl-1H-2-indolyl(1-phenyl-sulphonyl-1H-2-indolyl)methanone]: the melting point was 129 to 130 °C.

In the case of `COc1cccc2cc(C(=O)c3cc4ccccc4[nH]3)[nH]c12` [Example 30, 7-Methoxy-1H-2-indolyl(1H-2-indolyl)methanone], the melting point came out at 151 °C.

Compound `COc1ccc2cc(C(=O)c3cc4ccccc4n3S(=O)(=O)c3ccccc3)n(S(=O)(=O)c3ccccc3)c2c1` [Example 31, 6-Methoxy-1-phenylsulphonyl-1H-2-indolyl(1-phenylsulphonyl-1H-2-indolyl)methanone] registered a melting point of 184 to 186 °C.

Take `COc1ccc2cc(C(=O)c3cc4ccccc4[nH]3)[nH]c2c1` [Example 32, 6-Methoxy-1H-2-indolyl(1H-2-indolyl)methanone]: the melting point is 184 to 186 °C.

Turning to `O=C(c1cc2ccccc2[nH]1)c1cc2cc(OCc3ccccc3)ccc2[nH]1` [Example 42, 5-Benzyloxy-1H-2-indolyl(1H-2-indolyl)methanone], the melting point was in the range of 199 to 201 °C.

Regarding `O=C(c1cc2ccccc2[nH]1)c1cc2cc(O)ccc2[nH]1` [Example 43, 5-Hydroxy-1H-2-indolyl(1H-2-indolyl)methanone], the melting point was > 220 °C.

Compound `CCOc1ccc2[nH]c(C(=O)c3cc4ccccc4[nH]3)cc2c1` [Example 44, 5-Ethoxy-1H-2-indolyl(1H-2-indolyl)methanone] came in with a melting point of 168 to 169 °C.

As for `O=C(c1cc2ccccc2[nH]1)c1cc2cc(OCCCCI)ccc2[nH]1` [Example 47, 5-(4-Iodobutyloxy)-1H-2-indolyl(1H-2-indolyl)methanone], the melting point lay within 110 to 113 °C.

On to `O=C(c1cc2ccccc2[nH]1)c1cc2cc(OCC3CCCCC3)ccc2[nH]1` [Example 49, 5-Cyclohexylmethyloxy-1H-2-indolyl(1H-2-indolyl)-methanone], for which the melting point was 185 °C (dec.).

In turn, `O=C(c1cc2ccccc2[nH]1)c1cc2cc(OCCCCCI)ccc2[nH]1` [Example 50, 5-(5-Iodopentyloxy)-1H-2-indolyl(1H-2-indolyl)methanone] had a melting point of 127 to 130 °C.

The compound `CN(C)CC(=O)Oc1ccc2[nH]c(C(=O)c3cc4ccccc4[nH]3)cc2c1` [Example 56] registered a melting point of 215 to 217 °C.

For the compound `CCC(=O)Oc1ccc2[nH]c(C(=O)c3cc4ccccc4[nH]3)cc2c1` [Example 57], the melting point was > 230 °C.

As for `COc1ccc2c(c1)cc(Cc1cc3cc(OC)ccc3n1S(=O)(=O)c1ccccc1)n2S(=O)(=O)c1ccccc1` [Example 71, Bis(5-methoxy-N-phenylsulphonylindol-2-yl)methane], the melting point was 159 to 160 °C.

Compound `COc1ccc2c(c1)cc(Cc1cc3ccccc3n1S(=O)(=O)c1ccccc1)n2S(=O)(=O)c1ccccc1` [Example 72, (5-Methoxy-N-phenylsulphonylindol-2-yl)-(N-phenyl-sulphonylindol-2-yl)methane] had a melting point of 98 to 100 °C.

For `COc1ccc2c(c1)cc(Cc1cc3cccc(OC)c3n1S(=O)(=O)c1ccccc1)n2S(=O)(=O)c1ccccc1` [Example 73, (5-Methoxy-N-phenylsulphonylindol-2-yl)-(7-methoxy-N-phenylsulphonylindol-2-yl)methane], the melting point fell in the range of 168 to 170 °C.

In turn, `COc1ccc2[nH]c(C(=O)c3cc4ccccc4[nH]3)cc2c1` [Example 75, (5-Methoxyindol-2-yl)-(indol-2-yl)methanone] came in with a melting point of 112 °C.

With `COc1ccc2[nH]c3c(c2c1)C1=C(C(=O)NC1=O)c1c([nH]c2ccccc12)C3` [Example 82, 1,2,3,8,9,10-Hexahydro-5-methoxyindolo[3′,2′:5,6]-pyrrolo[3′,4′:3,4]-cyclohepta[b]indole-1,3-dione], the melting point is > 350 °C.

With `CN1C(=O)C2=C(C1=O)c1c([nH]c3ccccc13)CCc1[nH]c3ccccc3c12` [Example 84, 1,2,3,8,9,10,11-Heptahydro-2-methylindolo[3′,2′:5,6]-pyrrolo[3′,4′:3,4]-cycloocta[b]indole-1,3-dione], the melting point is > 350 °C.

On to `O=C1C2=C(C(=O)N1COCc1ccccc1)c1c([nH]c3ccccc13)Cc1[nH]c3ccccc3c12` [Example 85, 2-Benzyloxymethyl-1,2,3,8,9,10-hexahydroindolo-[3′,2′:5,6]-pyrrolo[3′,4′:3,4]-cyclohepta[b]indole-1,3-dione], for which the melting point was > 350 °C.

Turning to `CN(C)CCn1c2c(c3ccccc31)C1=C(C(=O)OC1=O)c1c([nH]c3ccccc13)C2` [Example 87, 3,8,9,10-Tetrahydro-8-[2-(N,N-dimethylamino)ethyl]-1H-indolo[3′,2′:5,6]furo[3′,4′:3,4]cyclohepta[b]indole-1,3-dione], the melting point is > 350 °C.

`CN(C)CCn1c2c(c3ccccc31)C1=C(C(=O)N(COCc3ccccc3)C1=O)c1c([nH]c3ccccc13)C2` [Example 88, 2-Benzyloxymethyl-1,2,3,8,9,10-hexahydro-8-[2-(N,N-di-methylamino)ethyl]indolo[3′,2′:5,6]pyrrolo[3′,4′:3,4]-cyclohepta[b]indole-1,3-dione]: the melting point was 164 to 165 °C.

Consider `CN(C)CCn1c2c(c3ccccc31)C1=C(C(=O)NC1=O)c1c([nH]c3ccccc13)C2` [Example 90, 1,2,3,8,9,10-Hexahydro-8-[2-(N,N-dimethylamino)ethyl]-indolo[3′,2′:5,6]pyrrolo[3′,4′:3,4]cyclohepta[b]indole-1,3-dione], for which the melting point fell in the range of 213 to 214 °C.

For `CN1C(=O)C(Br)=C(c2c(CCc3cc4ccccc4[nH]3)[nH]c3ccccc23)C1=O` [Example 91, 3-Bromo-4-(2-(2-(1H-2-indolyl)ethyl)-1H-3-indolyl)-1-methyl-2,5-dihydro-1H-pyrrole-2,5-dione], the melting point worked out at 169 °C.

In the case of `CN1C(=O)C(Br)=C(c2c(CCCCc3cc4ccccc4[nH]3)[nH]c3ccccc23)C1=O` [Example 92, 3-Bromo-4-(2-(4-(1H-2-indolyl)butyl)-1H-3-indolyl)-1-methyl-2,5-dihydro-1H-pyrrole-2,5-dione], the melting point is 165 °C (dec.).

For the compound `CN1C(=O)C(Br)=C(c2c(CCCCCc3cc4ccccc4[nH]3)[nH]c3ccccc23)C1=O` [Example 93, 3-Bromo-4-(2-(5-(1H-2-indolyl)pentyl)-1H-3-indolyl)-1-methyl-2,5-dihydro-1H-pyrrole-2,5-dione], the melting point is 125 °C (dec.).

With `O=C(c1c[nH]c2ccccc12)c1c[nH]c2ccccc12` [Example 94, Bis(indol-3-yl)methanone], the melting point is 297 to 299 °C.

Take `CN1C(=O)C(Br)=C(c2c(CCCCCc3[nH]c4ccccc4c3C3=C(Br)C(=O)N(C)C3=O)[nH]c3ccccc23)C1=O` [Example 112, 3-Bromo-4-(2-(5-(3-(4-bromo-1-methyl-2,5-dioxo-2,5-dihydro-1H-3-pyrrolyl)-1H-2-indolyl)pentyl)-1H-3-indolyl)-1-methyl-2,5-dihydro-1H-pyrrole-2,5-dione]: the melting point is 137 °C (dec.).

For the compound `O=C1NC(=O)C(c2c(CCCc3[nH]c4ccccc4c3C3=C(Br)C(=O)NC3=O)[nH]c3ccccc23)=C1Br` [Example 113, 3-Bromo-4-(2-(3-(3-(4-bromo-2,5-dioxo-2,5-dihydro-1H-3-pyrrolyl)-1H-2-indolyl)propyl)-1H-3-indolyl)-2,5-dihydro-1H-pyrrole-2,5-dione], the melting point is > 350 °C.

`O=C1NC(=O)C(c2c(CCCCCc3[nH]c4ccccc4c3C3=C(Br)C(=O)NC3=O)[nH]c3ccccc23)=C1Br` [Example 114, 3-Bromo-4-(2-(5-(3-(4-bromo-2,5-dioxo-2,5-dihydro-1H-3-pyrrolyl)-1H-2-indolyl)pentyl)-1H-3-indolyl)-2,5-dihydro-1H-pyrrole-2,5-dione]: the melting point is > 350 °C (dec.).

With `O=C1NC(=O)C(c2c(CCCCCCCCc3[nH]c4ccccc4c3C3=C(Br)C(=O)NC3=O)[nH]c3ccccc23)=C1Br` [Example 115, 3-Bromo-4-(2-(8-(3-(4-bromo-2,5-dioxo-2,5-dihydro-1H-3-pyrrolyl)-1H-2-indolyl)octyl)-1H-3-indolyl)-2,5-dihydro-1H-pyrrole-2,5-dione], the melting point was 180 °C (dec.).
